Each structure is given as a SMILES string. Calls of active or inactive are those of the source. How the calls were made is not given here. A value given as a limit tells only on which side of the number the result lay.

This assay addresses Influenza A virus M2 proton channel (A/TW/4845/1999 H1N1). Description: NMR binding screen, influenza A virus M2 proton channel, Kd (AID 1549). The following applies: M2 protein.
Regarding `O=C(O)CCN1CCc2ccccc2C1c1ccncc1` (stereo not drawn), the Kd is > 4 mM (inactive).
To `Cc1cc(O)c2c(c1)C(=O)c1cccc(O)c1C2=O` belongs > 4 mM (inactive); to `Nc1ccc(Cc2ccc(N)cc2)cc1`, > 4 mM (inactive).
Take `COc1nc(N2CCOCC2)nc(N)c1[N+](=O)[O-]`: the Kd is > 4 mM (inactive).
Regarding `COc1ccc(C(=O)NNC(=S)NC(C)=O)cc1`, the Kd was > 4 mM (inactive).
In the case of `CC(C)(C)CC(=O)N1CCC(C(N)=O)CC1` it was > 4 mM (inactive).
With `CC(=O)N(C)Cc1nc2ccccc2n1C`, the Kd was > 4 mM (inactive).
On to `Cc1ccc(-c2cc(C(=O)N3CCCC3)no2)cc1`, for which the Kd was > 4 mM (inactive).
As for `O=C(O)C1CC(C2CCCCN2)CN2CCCCC12` (stereo not drawn), the Kd was > 4 mM (inactive).
With `COc1cccc(=O)c2c(C)n(C)c(C)c12`, the Kd was > 4 mM (inactive).
On to `Nc1c(S(=O)(=O)c2ccccc2)csc1C(=O)O`, for which the Kd is > 4 mM (inactive).
`Cn1cnc2c(=O)[nH]cc([N+](=O)[O-])c21`: the Kd is > 4 mM (inactive).
`O=C(NC(=S)NCc1cccnc1)c1ccco1`: the Kd was > 4 mM (inactive).
Turning to `OC1CNCc2cc3c(cc21)OCCO3` (stereo not drawn), the Kd is > 4 mM (inactive).
Turning to `CCOC(=O)c1c(SC)nc(=O)[nH]c1C`, the Kd was > 4 mM (inactive).
Turning to `CC(=O)c1c(O)n(C)c(=S)n(C)c1=O`, the Kd was > 4 mM (inactive).
In the case of `O=S(=O)(NCc1ccco1)c1cccc2cccnc12` it was > 4 mM (inactive); in that of `C=C(C)[C@@H]1CC[C@]2(CO)CC[C@]3(C)[C@H](CCC4[C@@]5(C)CC[C@H](O)C(C)(C)C5CC[C@]43C)C12` (stereo partly drawn), > 4 mM (inactive); in that of `COC(=O)C(O)c1ccccc1` (stereo not drawn), > 4 mM (inactive).
`OCc1cc(F)cc2c1OCOC2`: the Kd was > 4 mM (inactive).
To `O=C1CCC([N+](=O)[O-])C(c2ccccc2F)N1` (stereo not drawn) belongs > 4 mM (inactive); to `NC(=O)c1ccccc1NC(=O)C1CCCO1` (stereo not drawn), > 4 mM (inactive); to `Cc1cccc(-n2c(N)cc(=O)[nH]c2=S)c1C`, > 4 mM (inactive).
On to `COc1ccc(C(C)=O)c(OC)c1`, for which the Kd is > 4 mM (inactive).
To `CC(=O)/C=C\[C@@H]1[C@@]2(C)CCCC(C)(C)C2CC[C@@]1(C)O` (stereo partly drawn) belongs > 4 mM (inactive).
In the case of `COC(=O)CCC(C)C1CCC2C3CCC4C[C@H](O)CC[C@]4(C)C3C[C@H](O)[C@]12C` (stereo partly drawn), the Kd was > 4 mM (inactive).
In the case of `CC1(C)NCCN2C(=O)CSC21` (stereo not drawn), the Kd is > 4 mM (inactive).
For the molecule `O=C(O)Cc1csc(-c2ccccc2)n1`, the Kd was > 4 mM (inactive).
In the case of `O=C(c1ccccc1)N1CCNCC1`, the Kd is > 4 mM (inactive).
For the molecule `c1ccc(-c2nsc(N3CCCNCC3)n2)cc1`, the Kd is > 4 mM (inactive).
As to `CCc1ccccc1NC(=O)c1ccoc1C`, the Kd was > 4 mM (inactive).
`O=C(CC1NC(=O)NC1=O)Nc1ccccc1` (stereo not drawn): the Kd was > 4 mM (inactive).
On to `NC(=O)C1CCN(C(=S)c2cccs2)CC1`, for which the Kd is > 4 mM (inactive).
As to `CCC1C(=O)OCC1Cc1cncn1C` (stereo not drawn), the Kd is > 4 mM (inactive).
In the case of `CC(C)CCCC(C)[C@H]1CCC2C3CC=C4C[C@@H](O)CC[C@]4(C)C3CC[C@@]21C` (stereo partly drawn) it was > 4 mM (inactive); in that of `Nc1cccc2nsnc12`, > 4 mM (inactive); in that of `NC(=O)C1CCCN1S(=O)(=O)c1ccc(F)cc1` (stereo not drawn), > 4 mM (inactive).
In the case of `Nc1ccc2c(C(F)(F)F)cc(=O)oc2c1`, the Kd is > 4 mM (inactive).
Consider `CC(C)(C)c1cc(NC(=O)c2cccnc2)no1`, for which the Kd is > 4 mM (inactive).
As to `NCc1ccc(-c2cccs2)s1`, the Kd is > 4 mM (inactive).
In the case of `Cc1nc(-c2ccccc2)sc1CN` it was > 4 mM (inactive); in that of `CC(C)NC(=S)NCc1cnn(C)c1`, > 4 mM (inactive); in that of `COc1ccccc1/C=C\C(=O)O`, > 4 mM (inactive).
`O=C(/C=C1\SC(=O)NC1=O)NCc1ccccc1`: the Kd was > 4 mM (inactive).
`NC(=O)C1CCN(C(=S)Nc2ccccc2)CC1`: the Kd was > 4 mM (inactive).
In the case of `O=C1OC(N2CCOCC2)c2ccccc21` (stereo not drawn) it was > 4 mM (inactive); in that of `Cc1cc(C)n(CC(=O)O)n1`, > 4 mM (inactive); in that of `Cc1cc(C)n(-c2ccc(Cl)nn2)n1`, > 4 mM (inactive).
Regarding `CCN1C(=O)c2c(C)nc3ccccc3c2C1=O`, the Kd was > 4 mM (inactive).
With `O=C(O)c1cn(-c2ccccc2)nc1-c1ccncc1`, the Kd is > 4 mM (inactive).
To `Cc1[nH]ccc2c1[nH]c1cc(=O)ccc12` belongs > 4 mM (inactive); to `C/C=C(/C)C(=O)O[C@@H]1[C@H](OC(C)=O)[C@@]2(CO)C(CC1(C)C)C1=CCC3[C@@]4(C)CC[C@H](O[C@@H]5O[C@H](C(=O)O)[C@@H](O[C@@H]6O[C@H](CO)[C@@H](O)[C@H](O)[C@H]6O)[C@H](O)[C@H]5O[C@@H]5O[C@H](CO)[C@@H](O)[C@H](O)[C@H]5O)[C@](C)(CO)C4CC[C@@]3(C)[C@]1(C)C[C@H]2O` (stereo partly drawn), > 4 mM (inactive).
For the molecule `COc1cc(C)c2c(c1C=O)Oc1c(c(C)c(O)c3c1C(O)OC3=O)OC2=O` (stereo not drawn), the Kd is > 4 mM (inactive).
Take `O=c1ccc2nc3ccccc3c(=O)n2[nH]1`: the Kd was > 4 mM (inactive).
In the case of `COc1ccc(-c2oc3ccccc3c(=O)c2O)cc1OC` it was > 4 mM (inactive).
For the molecule `OCc1ccc(-n2ccnc2)cc1`, the Kd is > 4 mM (inactive).
As to `Cc1noc(C)c1C(=O)Nc1sc(C)c(C)c1C#N`, the Kd was > 4 mM (inactive).
Turning to `COC(=O)C1Cc2ccccc2N1` (stereo not drawn), the Kd is > 4 mM (inactive).
With `Cc1cc(C)n2nc(Cc3ccccc3)nc2n1`, the Kd was > 4 mM (inactive).
With `O=C(O)c1cc(O)c(O)c(O)c1`, the Kd is > 4 mM (inactive).
As for `Cc1cc2cc(N)ccc2[nH]1`, the Kd is > 4 mM (inactive).
In the case of `CCOC(=O)C1CCN(c2ncnc3nc[nH]c23)CC1` it was > 4 mM (inactive).
Consider `Cc1nn2c3ccccc3nc2n(Cc2ccccc2)c1=O`, for which the Kd is > 4 mM (inactive).
To `CCOC(=O)c1c(C)nc2ncccn12` belongs > 4 mM (inactive); to `Cc1occc1C(=O)Nc1nnc(-c2ccncc2)s1`, > 4 mM (inactive); to `CCOC(=O)CN1C(=O)c2ccccc2C1=O`, > 4 mM (inactive).
On to `COc1ccc(-c2cc(=O)c3ccccc3o2)cc1`, for which the Kd was > 4 mM (inactive).
For `C#CCCCCCCCCCCCC(=O)CC(O)COC(C)=O` (stereo not drawn), the Kd is > 4 mM (inactive).
Consider `Cc1ccc(SCc2cc(=O)n3[nH]c(C)nc3n2)cc1`, for which the Kd is > 4 mM (inactive).
In the case of `CN1C(CC(=O)c2ccccc2)CCCC1CC(O)c1ccccc1` (stereo not drawn), the Kd is > 4 mM (inactive).
With `O=C(O)c1cnn2ccccc12`, the Kd was > 4 mM (inactive).
To `Cc1oc(-c2ccccc2)cc1CO` belongs > 4 mM (inactive); to `O=C(/C(=N\O)n1cncn1)c1ccccc1Cl`, > 4 mM (inactive).

For orientation: Kd means the equilibrium constant for the complex coming apart.
